{"source": "patent US9132188B2", "about": "“Chemically Programmed Vaccination” (The Scripps Research Institute, priority 2009, dated 2015)", "system": "CT26 tumors", "test": "Syngeneic colon cancer model, CT26 tumors in JW-KLH-immunized BALB/C mice", "assay_type": "in vivo", "settings": "200 μL i.p. days 2-17; compared with PBS", "protocol": "FIG. 5 illustrates inhibition of tumor growth in syngenic mice mediated by adaptor-targeted antibodies. […] Mice (six per group) were treated between days 2 and 17 with 200 μL i.p. injections of PBS alone, 60 μg/mL SCS-873 in PBS, or 27.5 μg/mL SCS-397 in PBS. Mean tumor volumes±SD were determined at 3-day intervals from 12 to 30 days post-grafting. […] Mice (six per group) were treated between days 2 and 17 with 200 μL i.p. injections of PBS alone, 77 μg/mL cRGD-dk in PBS, or 42.5 μg/mL cRGD in PBS. Mean tumor volumes±SD were determined at 3-day intervals from 12 to 30 days post-grafting. […] Mean tumor volumes±SD were determined at 3-day intervals from 12 to 24 days post-grafting. […] Mean tumor volumes±SD were determined at 3-day intervals from 12 to 24 days post-grafting.\nOn day 65, JW-KLH-immunized BALB/C mice were sorted (6 groups with 6 animals each) to form matched anti-JW titer groups and were inoculated s.c. into right flanks with 0.1 mL (2×10^5 cells/mouse) of CT26 cell suspension in PBS (day 0 for tumor model). […] Tumor volumes of treated animals were measured over the skin in two dimensions using a slide caliper every third day starting on day 12, and the tumor volume was calculated according to the following formula, ½(width)^2×length. Toxicity was monitored by determining the body weight of mice once a week. […]", "data": [{"substance": "cyclo(Arg-Gly-Asp-D-Phe-Lys) [cRGD]", "values": [{"measurement": "growth of CT26 tumors (in words)", "result": "no more effective than treatment with PBS"}]}]}
